The target of assay [1] is T1, 50S ribosomal protein rplB (Staphylococcus aureus, UniProt P60430).
T1 construct: purified recombinant S. aureus rplB protein (His-Tag labeled)
Kind of assay: microscale thermophoresis; also thermal shift of pure protein and competition with Sof-P labeling. Type of assay: binding. (MST reads how a fluorescent partner responds to local heating, with and without ligand.)

For assay [2], the target named is T2, 50S ribosomal protein rplB (Staphylococcus aureus, UniProt P60430).
T2 construct: purified recombinant rplB protein
T2 sequence (P60430 1-277): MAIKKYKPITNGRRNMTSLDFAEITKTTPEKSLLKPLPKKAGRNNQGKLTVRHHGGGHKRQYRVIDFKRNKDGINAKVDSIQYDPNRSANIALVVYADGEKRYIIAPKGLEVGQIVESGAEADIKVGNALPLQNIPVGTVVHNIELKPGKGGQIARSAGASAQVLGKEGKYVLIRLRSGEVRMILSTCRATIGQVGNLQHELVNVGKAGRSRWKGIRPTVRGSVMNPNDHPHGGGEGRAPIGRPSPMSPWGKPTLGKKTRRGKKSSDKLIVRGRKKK
Kind of assay: in-gel fluorescence covalent labeling of purified recombinant protein (click chemistry), competed by Sof and IAA. Type of assay: binding.

Broadly, the pKd is −log10 of the Kd, conventionally taken in molar units.

pKd: −log10 of the molar value.

Regarding `CC(C)=CCOc1ccc(/C=C/C(=O)c2ccc(OCC=C(C)C)cc2OCC(=O)O)cc1` [Sof, 2′-carboxymethoxy-4,4′-bis(3-methyl-2-butenyloxy) chalcone], the pKd in assay [1] is 5.90.
On to `C#CCNC(=O)COc1cc(OCC=C(C)C)ccc1C(=O)/C=C/c1ccc(OCC=C(C)C)cc1` [Sof-P], for which the “in-gel fluorescence covalent labeling of purified recombinant protein (click che)” value in assay [2] is “Sof-P labeling of recombinant rplB was concentration-dependent and was effectively competed by excess Sof or iodoacetamide (IAA)”.

Values taken from article PMC12102032, “Chemoproteomics unveils Sofalcone targeting ribosomal proteins to inhibit protein synthesis in Staphylococcus aureus” (Molecular Biomedicine, 2025).
